Data: patent EP4656640A1, “IRAK4 DEGRADER AND USE THEREOF” (Shanghai Qilu Pharmaceutical Research and Development …, priority 2023, dated 2024)

Biological target: T1, IRAK4 (Homo sapiens, UniProt Q9NWZ3)
T1 sequence (Q9NWZ3 1-460): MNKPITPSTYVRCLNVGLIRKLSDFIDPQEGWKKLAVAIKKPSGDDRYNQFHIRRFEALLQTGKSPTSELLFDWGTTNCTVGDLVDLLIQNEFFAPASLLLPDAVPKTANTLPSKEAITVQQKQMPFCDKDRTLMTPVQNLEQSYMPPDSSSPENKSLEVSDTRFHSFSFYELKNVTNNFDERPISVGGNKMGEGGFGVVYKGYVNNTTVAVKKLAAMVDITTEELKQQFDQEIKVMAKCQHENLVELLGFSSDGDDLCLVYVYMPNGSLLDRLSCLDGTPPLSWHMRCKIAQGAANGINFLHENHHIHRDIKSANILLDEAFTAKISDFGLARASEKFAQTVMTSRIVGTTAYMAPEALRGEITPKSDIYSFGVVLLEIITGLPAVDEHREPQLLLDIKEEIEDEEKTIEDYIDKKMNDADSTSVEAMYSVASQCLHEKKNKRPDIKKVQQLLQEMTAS
Test: not given
Assay type: cell-based
Parameters: endogenous in cells; host or cells: OCI-LY3
Settings: read-out: OCI-LY3 DC50

DC50 | Compound
0.4 nM | Cn1c(=O)n(C2CCC(=O)NC2=O)c2cccc(C#CCOCCCN3CCC4(CC3)CC(n3cc(NC(=O)c5cnn6ccc(N7C[C@H]8C[C@@H]7CO8)nc56)c(C(F)F)n3)C4)c21 (some centres unmarked) [Example 2]

Same assay, conditions: read-out: OCI-LY3 DC50; OCI-LY3 cells

Compound | DC50
Cn1c(=O)n(C2CCC(=O)NC2=O)c2cccc(C#CCOCC(C)(C)C(=O)N3CCC4(CC3)CC(n3cc(NC(=O)c5cnn6ccc(N7C[C@H]8C[C@@H]7CO8)nc56)c(C(F)F)n3)C4)c21 (some centres unmarked) [Example 5] | 28 nM
Cn1c(=O)n(C2CCC(=O)NC2=O)c2cccc(C#CCOCC(=O)N3CCC4(CC3)CC(n3cc(NC(=O)c5cnn6ccc(N7C[C@H]8C[C@@H]7CO8)nc56)c(C(F)F)n3)C4)c21 (some centres unmarked) [Example 12] | 5 nM
Cn1c(=O)n(C2CCC(=O)NC2=O)c2cccc(C#CCCC(=O)N3CCC4(CC3)CC(n3cc(NC(=O)c5cnn6ccc(N7C[C@H]8C[C@@H]7CO8)nc56)c(C(F)F)n3)C4)c21 (some centres unmarked) [Example 24] | 3 nM
Cn1c(=O)n(C2CCC(=O)NC2=O)c2cccc(C#CCOC(C)(C)C(=O)N3CCC4(CC3)CC(n3cc(NC(=O)c5cnn6ccc(N7C[C@H]8C[C@@H]7CO8)nc56)c(C(F)F)n3)C4)c21 (some centres unmarked) [Example 10] | 13 nM

Biological target: T1, IRAK4
Test: Degradation of IRAK4 in SU-DHL-2 cells (flow cytometry)
Assay type: cell-based
Parameters: The degradation level of IRAK4 protein in SU-DHL-2 cell line by the compounds was detected by flow cytometry; endogenous in cells; host or cells: SU-DHL-2; OCI-LY3
Settings: SU-DHL-2 cells, 24 hours incubation; read-out: SU-DHL-2 DC50
Experimental: The degradation level of IRAK4 protein in SU-DHL-2 cell line by the compounds was detected by flow cytometry.
Step 2: On day 1, the cells were seeded at a density of 2 × 10^5 cells per well in 100 µL in a 96-well plate. The compounds were dissolved in DMSO to a final concentration of 10 mM, and then diluted with culture medium at a 1:5 concentration gradient to prepare 10 concentrations. The diluted solutions were added to the cells to obtain a maximum final concentration of 2 µM. Wells containing cells treated with 0.1% DMSO served as the […] The cells were incubated at 37°C in a 5% CO2 incubator for 24 hours.
Step 3: After centrifugation, the cells were washed with FACS buffer. The cells were stained for viability discrimination using the LIVE/DEAD™ Fixable Blue Dead Cell Stain Kit, and surface staining of monocytes was performed with PE Mouse Anti-Human CD14, followed by incubation at 4°C for 30 minutes.
Step 4: After centrifugation, the cells were washed with FACS buffer. Fix buffer I, equal in volume to the cultured cells, was added, and the cells were fixed at 37°C for 10 minutes.
Step 5: After centrifugation, the cells were washed with FACS buffer. 150 µL of Perm III reagent was added, and the cells were incubated at 4°C for 30 minutes to permeabilize the membranes. After centrifugation, the cells were washed with FACS buffer.
Flow cytometry analysis was performed using a flow cytometer.
The flow cytometry data were analyzed using Flowjo software. Data presentation and DC50 (half-maximal degradation concentration) calculation were performed using Prism 8.0.2 (GraphPad).

Compound | DC50
Cn1c(=O)n(C2CCC(=O)NC2=O)c2cccc(C#CCCC(=O)N3CCC4(CC3)CC(n3cc(NC(=O)c5cnn6ccc(N7C[C@H]8C[C@@H]7CO8)nc56)c(C(F)F)n3)C4)c21 (some centres unmarked) [Example 24] | 4 nM
Cn1c(=O)n(C2CCC(=O)NC2=O)c2cccc(C#CCOC[C@H]3C[C@H]3CN3CCC4(CC3)CC(n3cc(NC(=O)c5cnn6ccc(N7C[C@H]8C[C@@H]7CO8)nc56)c(C(F)F)n3)C4)c21 (relative stereo) [Example 44] | 5.4 nM
Cn1c(=O)n(C2CCC(=O)NC2=O)c2cccc(C#CCOC3CC(CN4CCC5(CCC(n6cc(NC(=O)c7cnn8ccc(N9C[C@H]%10C[C@@H]9CO%10)nc78)c(C(F)F)n6)CC5)CC4)C3)c21 (some centres unmarked) [Example 40] | 33 nM
Cn1c(=O)n(C2CCC(=O)NC2=O)c2cccc(C#CCOCCN3CCC4(CCC(n5cc(NC(=O)c6cnn7ccc(N8C[C@H]9C[C@@H]8CO9)nc67)c(C(F)F)n5)CC4)CC3)c21 (some centres unmarked) [Example 37] | 24 nM
Cn1c(=O)n(C2CCC(=O)NC2=O)c2cccc(C#CCOC3CCC(CN4CCC5(CCC(n6cc(NC(=O)c7cnn8ccc(N9C[C@H]%10C[C@@H]9CO%10)nc78)c(C(F)F)n6)CC5)CC4)CC3)c21 (some centres unmarked) [Example 46] | 13 nM

Same assay, conditions: read-out: SU-DHL-2 DC50

DC50 | Compound
4 nM | Cn1c(=O)n(C2CCC(=O)NC2=O)c2cccc(C#CC(C)(C)N3CC(C(=O)N4CCC5(CC4)CC(n4cc(NC(=O)c6cnn7ccc(N8C[C@H]9C[C@@H]8CO9)nc67)c(C(F)F)n4)C5)C3)c21 (some centres unmarked) [Example 50]
17 nM | Cn1c(=O)n(C2CCC(=O)NC2=O)c2cccc(C#CCOC3CN(C(=O)N4CCC5(CCC(n6cc(NC(=O)c7cnn8ccc(N9C[C@H]%10C[C@@H]9CO%10)nc78)c(C(F)F)n6)CC5)CC4)C3)c21 (some centres unmarked) [Example 39]
1.1 nM | Cn1c(=O)n(C2CCC(=O)NC2=O)c2cccc(C#CCOCCCN3CCC4(CC3)CC(n3cc(NC(=O)c5cnn6ccc(N7C[C@H]8C[C@@H]7CO8)nc56)c(C(F)F)n3)C4)c21 (some centres unmarked) [Example 2]
61 nM | Cn1c(=O)n(C2CCC(=O)NC2=O)c2cccc(C#CCOC3CCN(C(=O)N4CCC5(CCC(n6cc(NC(=O)c7cnn8ccc(N9C[C@H]%10C[C@@H]9CO%10)nc78)c(C(F)F)n6)CC5)CC4)CC3)c21 (some centres unmarked) [Example 43]
7 nM | Cn1c(=O)n(C2CCC(=O)NC2=O)c2cccc(C#CCOC34CCC(C(=O)N5CCC6(CC5)CC(n5cc(NC(=O)c7cnn8ccc(N9C[C@H]%10C[C@@H]9CO%10)nc78)c(C(F)F)n5)C6)(CC3)CC4)c21 (some centres unmarked) [Example 51]
16 nM | Cn1c(=O)n(C2CCC(=O)NC2=O)c2cccc(C#CC(C)(C)C(=O)N3CCC4(CC3)CC(n3cc(NC(=O)c5cnn6ccc(N7C[C@H]8C[C@@H]7CO8)nc56)c(C(F)F)n3)C4)c21 (some centres unmarked) [Example 70]
17 nM | Cn1c(=O)n(C2CCC(=O)NC2=O)c2cccc(C#CC(C)(C)N3CC[C@@H](C(=O)N4CCC5(CC4)CC(n4cc(NC(=O)c6cnn7ccc(N8C[C@H]9C[C@@H]8CO9)nc67)c(C(F)F)n4)C5)C3)c21 (some centres unmarked) [Example 54]
4 nM | Cn1c(=O)n(C2CCC(=O)NC2=O)c2cccc(C#CCOC3CCN(CC4CCC5(CC4)CC(n4cc(NC(=O)c6cnn7ccc(N8C[C@H]9C[C@@H]8CO9)nc67)c(C(F)F)n4)C5)CC3)c21 (some centres unmarked) [Example 61]
5 nM | Cn1c(=O)n(C2CCC(=O)NC2=O)c2cccc(C#CCN3CC(C(=O)N4CCC5(CC4)CC(n4cc(NC(=O)c6cnn7ccc(N8C[C@H]9C[C@@H]8CO9)nc67)c(C(F)F)n4)C5)C3)c21 (some centres unmarked) [Example 58]
1.2 nM | Cn1c(=O)n(C2CCC(=O)NC2=O)c2cccc(C#CCN3CCC(CN4CCC5(CC4)CC(n4cc(NC(=O)c6cnn7ccc(N8C[C@H]9C[C@@H]8CO9)nc67)c(C(F)F)n4)C5)CC3=O)c21 (some centres unmarked) [Example 62]
21 nM | Cn1c(=O)n(C2CCC(=O)NC2=O)c2cccc(C#CC(C)(C)N3CCC(CN4CCC5(CC4)CC(n4cc(NC(=O)c6cnn7ccc(N8C[C@H]9C[C@@H]8CO9)nc67)c(C(F)F)n4)C5)CC3)c21 (some centres unmarked) [Example 34]
22 nM | Cn1c(=O)n(C2CCC(=O)NC2=O)c2cccc(C#CCOc3ccc(CN4CCC5(CC4)CC(n4cc(NC(=O)c6cnn7ccc(N8C[C@H]9C[C@@H]8CO9)nc67)c(C(F)F)n4)C5)cc3)c21 (some centres unmarked) [Example 57]
0.5 nM | COc1cc2nn(C3CCC4(CC3)CCN(CC3CCN(c5ccc6c(c5)C(=O)N(C5CCC(=O)NC5=O)C6=O)CC3)CC4)cc2cc1C(=O)Nc1cnc2cccnn12 (centres unmarked) [Example 47]
1 nM | COc1cc2nn(C3CCC4(CC3)CCN(CC3CCN(c5ccc6c(c5)C(=O)N(C5CCC(=O)NC5=O)C6=O)CC3)CC4)cc2cc1NC(=O)c1cnn2cccnc12 (centres unmarked) [Example 48]
5 nM | Cn1c(=O)n(C2CCC(=O)NC2=O)c2cccc(C#CCC3CCC(N4CCC5(CC4)CC(n4cc(NC(=O)c6cnn7ccc(N8C[C@H]9C[C@@H]8CO9)nc67)c(C(F)F)n4)C5)CC3)c21 (some centres unmarked) [Example 35]
4 nM | Cn1c(=O)n(C2CCC(=O)NC2=O)c2cccc(C#CCO[C@H]3CC[C@@H](C(=O)N4CCC5(CC4)CC(n4cc(NC(=O)c6cnn7ccc(N8C[C@H]9C[C@@H]8CO9)nc67)c(C(F)F)n4)C5)CC3)c21 (some centres unmarked) [Example 72]
1 nM | COc1cc2nn(C3CCC4(CC3)CCN(C3CC(OCC#Cc5cccc6c5n(C)c(=O)n6C5CCC(=O)NC5=O)C3)CC4)cc2cc1C(=O)Nc1cnc2cccnn12 (centres unmarked) [Example 64]
68 nM | Cn1c(=O)n(C2CCC(=O)NC2=O)c2cccc(C#CCOC3CC(N4CCC5(CCC(n6cc(NC(=O)c7cnn8ccc(N9C[C@H]%10C[C@@H]9CO%10)nc78)c(C(F)F)n6)CC5)CC4)C3)c21 (some centres unmarked) [Example 38]
5 nM | Cn1c(=O)n(C2CCC(=O)NC2=O)c2cccc(C#CCO[C@H]3CC[C@H](C(=O)N4CCC5(CC4)CC(n4cc(NC(=O)c6cnn7ccc(N8C[C@H]9C[C@@H]8CO9)nc67)c(C(F)F)n4)C5)CC3)c21 (some centres unmarked) [Example 71]
2.8 nM | COc1cc2nn(C3CC4(CCN(CC5CC(OCC#Cc6cccc7c6n(C)c(=O)n7C6CCC(=O)NC6=O)C5)CC4)C3)cc2cc1C(=O)Nc1cnc2cccnn12 (centres unmarked) [Example 65]
24 nM | Cn1c(=O)n(C2CCC(=O)NC2=O)c2cccc(C#CCOC3CCN(CC4CCC5(CC4)CCC(n4cc(NC(=O)c6cnn7ccc(N8C[C@H]9C[C@@H]8CO9)nc67)c(C(F)F)n4)CC5)CC3)c21 (some centres unmarked) [Example 68]
6.5 nM | Cn1c(=O)n(C2CCC(=O)NC2=O)c2cccc(C#CCOC3CCC(N4CCC5(CC4)CC(n4cc(NC(=O)c6cnn7ccc(N8C[C@H]9C[C@@H]8CO9)nc67)c(C(F)F)n4)C5)CC3)c21 (some centres unmarked) [Example 33]
7 nM | Cn1c(=O)n(C2CCC(=O)NC2=O)c2cccc(C#CC(C)(C)N3CC[C@H](C(=O)N4CCC5(CC4)CC(n4cc(NC(=O)c6cnn7ccc(N8C[C@H]9C[C@@H]8CO9)nc67)c(C(F)F)n4)C5)C3)c21 (some centres unmarked) [Example 55]
3 nM | Cn1c(=O)n(C2CCC(=O)NC2=O)c2cccc(C#CCN3CC[C@H](C(=O)N4CCC5(CC4)CC(n4cc(NC(=O)c6cnn7ccc(N8C[C@H]9C[C@@H]8CO9)nc67)c(C(F)F)n4)C5)C3)c21 (some centres unmarked) [Example 59]
45 nM | COc1cc2nn(C3CCC4(CC3)CCN(CC3CCN(c5ccc6c(c5)C(=O)N(C5CCC(=O)NC5=O)C6=O)CC3)CC4)cc2cc1NC(=O)c1cnc2cccnn12 (centres unmarked) [Example 67]

Same assay, conditions: read-out: SU-DHL-2 DC50; SU-DHL-2 cells, 24 hours incubation

Compound | DC50
Cn1c(=O)n(C2CCC(=O)NC2=O)c2cccc(C#CCOCC(C)(C)C(=O)N3CCC4(CC3)CC(n3cc(NC(=O)c5cnn6ccc(N7C[C@H]8C[C@@H]7CO8)nc56)c(C(F)F)n3)C4)c21 (some centres unmarked) [Example 5] | 27 nM
Cn1c(=O)n(C2CCC(=O)NC2=O)c2cccc(C#CCOCC(=O)N3CCC4(CC3)CC(n3cc(NC(=O)c5cnn6ccc(N7C[C@H]8C[C@@H]7CO8)nc56)c(C(F)F)n3)C4)c21 (some centres unmarked) [Example 12] | 5 nM
Cn1c(=O)n(C2CCC(=O)NC2=O)c2cccc(C#CCOC(C)(C)C(=O)N3CCC4(CC3)CC(n3cc(NC(=O)c5cnn6ccc(N7C[C@H]8C[C@@H]7CO8)nc56)c(C(F)F)n3)C4)c21 (some centres unmarked) [Example 10] | 17 nM
